Reference: patent US8158362B2, “Methods of diagnosing susceptibility to myocardial infarction and screening for an LTA4H haplotype” (deCODE Genetics ehf., priority 2005, dated 2012)
“Also recorded” adds a separate entry of the source.

How the values were obtained:
[1] = Safety and adverse events, DG-031 crossover clinical trial; assay type: in vivo, human
Text: All study participants lived in the Reykjavik metropolitan area or its neighboring townships. All study participants were followed by the designated cardiologists at the University Hospital of Iceland, at their outpatient or private clinics, and all subjects had participated in a study on the genetics of MI. After the subject had given informed consent, a medical and medication history was completed, including co-morbidities, concomitant medications and specific details about the subject's cardiovascular history, including current status. All study participants were fasting and had not taken their medications prior to the study visit. Cardiologists examined the patients at all 8 visits and completed the case report forms. All blood was collected and processed immediately after sampling. All blood specimens used for the biomarker studies were processed within 2 hours of blood sampling.
(§1) Patients (191 subjects) who met the study eligebility criteria were enrolled and randomized into 3 different dose-level groups: (1) 64 patients on 250 mg/day therapy with DG-031 (250 mg q.d.), vs placebo; (2) 64 patients on 500 mg/day therapy with DG-031 (250 mg b.i.d.) vs placebo; and (3) 63 patients on 750 mg/day therapy with DG-031 (250 mg t.i.d.) vs placebo. […] All patients received 3 tablets per day. Treatment periods, 4 weeks in duration each, were separated by a 2-week washout period. The placebo tablets were identical in shape, color, form and taste to the active tablets except that they contained no active drug ingredients. Treatment with DG-031 or placebo was in addition to the subject's standard care, including all medications and treatment plan as prescribed by the subject's cardiologist prior to enrollment. Due to early termination of 19 subjects (primarily related to unavailability due to travel), 11 were replaced prior to enrollment closure. Thus, a total of 191 subjects were enrolled, with 172 completing all 8 visits or 8 patients (4.4%) short of target.

[2] = test system: C-reactive protein (CRP); assay: Serum CRP, DG-031 crossover clinical trial incl. carry-over test; assay type: in vivo, human
Procedure: (§2) In the short term study, changes in levels of biomarkers that are associated with risk of MI were scored as evidence of changes in the risk of MI.
as §1
All data were analyzed according to a pre-established analysis plan and by intention-to-treat. Hypotheses were tested at a two-sided nominal significance level of 0.05. Each arm of the study, as well as pooled sets (combining dose levels), was considered for the primary analysis. Each such set is a standard AB/BA cross-over design and in the primary analysis of efficacy, the levels of biomarkers of MI risk at the end of the treatment periods (visits 4 and 7) were used as primary response variables. The difference between DG-031 and placebo treatment was the primary outcome, assessed separately for each of the biomarkers. Treatment effect was tested using a two-sample t-test on the period differences for suitably transformed response variables, under an assumption of normality of the transformed data. We report treatment effect as one half of the observed mean differences in the two-sample t-test, with a 95% CI. No pre-tests for carry-over effect were performed as a part of the primary analysis. Tests for carry-over were done and are reported separately from results of primary analysis. As was prespecified for the primary analysis, a simple Bonferroni-adjustment based on 10 biomarkers for the primary objective for the pooled set of the two highest doses, was used to report the outcome of the primary objective. All p-values reported are nominal.
To cancel out potential seasonal effects, carry-over effects were also studied with two-sample t-tests that compare measurements of the AB (drug/placebo) group with the measurements of the BA (placebo/drug) group. To estimate the effect of the drug at visit 3 for the AB group, (v3−v2), with v3 and v2 denoting, respectively, measurements at visit 3 and visit 2, was used. Similarly (v4−v2) and (v5−v2) were used to estimate effects at visits 4 and 5. For estimating the effect at visit 6, [(v6−v2)+(v3−v2)] was used. Note that v6 from the BA group includes the drug effect after two weeks which cancels the drug effect at visit 3 from the AB group. Similarly, [(v7−v2)+(v4−v2)] was used to estimate the effect at visit 7. […]
(§3) Apart from measurements in plasma, LTB4 and MPO were also measured in whole blood preparations ex vivo following ionomycin-activation of leukocytes, using ELISA and mass spectrometry. […]

[3] = test system: urinary leukotriene E4; assay: Urine LTE4, DG-031 crossover clinical trial; assay type: in vivo, human; conditions: highest dosage of DG-031 (750 mg/day); nominal p=0.00002
Procedure: as §2
(§4) Patients (191 subjects) who met the study eligebility criteria were enrolled and randomized into 3 different dose-level groups: (1) 64 patients on 250 mg/day therapy with DG-031 (250 mg q.d.), vs placebo; (2) 64 patients on 500 mg/day therapy with DG-031 (250 mg b.i.d.) vs placebo; and (3) 63 patients on 750 mg/day therapy with DG-031 (250 mg t.i.d.) vs placebo. […] All patients received 3 tablets per day. Treatment periods, 4 weeks in duration each, were separated by a 2-week washout period. […]
(§5) All data were analyzed according to a pre-established analysis plan and by intention-to-treat. […] The difference between DG-031 and placebo treatment was the primary outcome, assessed separately for each of the biomarkers. […]
(§6) Apart from measurements in plasma, LTB4 and MPO were also measured in whole blood preparations ex vivo following ionomycin-activation of leukocytes, using ELISA and mass spectrometry. […] On the log scale the adjustment was based on a linear model, with coefficients determined empirically at time of blind review. Several tertiary markers were also measured including: IL-6, IL-12p40, TNFα, MMP-9, sICAM, sVCAM, P-selectin, E-selectin, MCP-1 and oxidised LDL.

[4] = 750 mg/day dose; healthy volunteers and patients with asthma (Dahlen et al., Hamilton et al.); cited from earlier work
[5] = test system: Lp-PLA2; assay: Lp-PLA2, DG-031 crossover clinical trial; assay type: in vivo, human
Procedure: as §2, §4, §5, §6

[6] = test system: serum amyloid A; assay: Serum amyloid A (SAA), DG-031 crossover clinical trial incl. carry-over test; assay type: in vivo, human
Procedure: as §2
as §1, with “Due to early termination of 19 subjects (primarily related to unavailability due to travel), 11 were replaced prior to enrollment closure. Thus, a total of 191 subjects were enrolled, with 172 completing all 8 visits or 8 patients (4.4%) short of target.” left out
as §5, §3

[7] = test system: LTB4 produced by ionomycin-activated neutrophils; assay: LTB4 production in ionomycin-activated whole blood/neutrophils ex vivo, DG-031 placebo-controlled crossover clinical trial; design: species or system human
Procedure: as §2, §1
All data were analyzed according to a pre-established analysis plan and by intention-to-treat. Hypotheses were tested at a two-sided nominal significance level of 0.05. Each arm of the study, as well as pooled sets (combining dose levels), was considered for the primary analysis. Each such set is a standard AB/BA cross-over design and in the primary analysis of efficacy, the levels of biomarkers of MI risk at the end of the treatment periods (visits 4 and 7) were used as primary response variables. The difference between DG-031 and placebo treatment was the primary outcome, assessed separately for each of the biomarkers. […]
as §3

[8] = test system: myeloperoxidase (MPO) in whole blood; assay: MPO production in ionomycin-activated whole blood ex vivo, DG-031 crossover clinical trial; design: species or system human
Procedure: as §2
as §1, with “Due to early termination of 19 subjects (primarily related to unavailability due to travel), 11 were replaced prior to enrollment closure. Thus, a total of 191 subjects were enrolled, with 172 completing all 8 visits or 8 patients (4.4%) short of target.” left out
as §5, §3

[9] = test system: IL-6, IL-12p40, TNFα, MMP-9, sVCAM, P-selectin, E-selectin, MCP-1 and oxidised LDL; assay: Other tertiary markers (IL-6, IL-12p40, TNFα, MMP-9, sVCAM, P-selectin, E-selectin, MCP-1, oxidised LDL), DG-031 crossover clinical trial; assay type: in vivo, human; conditions: DG-031 vs placebo
Procedure: as §2, §4, §5, §6

[10] = differences between visit 2 and 5, 500 and 750 mg/day vs placebo

With `O=C(O)[C@@H](c1ccc(OCc2ccc3ccccc3n2)cc1)C1CCCC1` [DG-031, (R)-(+)-alpha-cyclopentyl-4-(2-quinolinylmethoxy)-Benzeneacetic acid] the “dizziness, number of patients reporting” value ([1]; active drug (any dose) vs none on placebo, p=0.032) was 6 patients, the liver transaminases ([1]; active drug vs placebo) was “no difference was detected” and the serious adverse events ([1]; between treatment groups or dose arms) was “no difference in serious adverse events”. For the same compound, the “overall safety and tolerability” value ([1]; clinical trial, 250-750 mg/day) was “safe and well tolerated”, the “carry-over / persistent effect after discontinuation, CRP” value ([2]; differences between visit 2 and 5, 500 and 750 mg/day vs placebo, p=0.017) was “evidence of a persistent effect; also recorded: marked carry over effects were observed; also recorded: seems to persists until visit 7” and the “further CRP reduction in subjects already on statin therapy” value ([2]; short term study, LT inhibitor added to statin therapy) was 20-30%. For the same compound, the “reduction of serum levels of CRP” value ([2]; summary of the clinical trial) was “approximately 25%”, the “reduction of CRP” value ([2]; visit 5 (after 2-week washout), two higher doses, p=0.017) was “about 25%” and the “level of CRP during treatment” value ([2]; visits 3 (2 weeks on therapy) and 4 (4 weeks on therapy), two higher doses) was “dropped at visits 3 and 4, but not significantly”. For the same compound, the “increase in urine levels of LTE4” value [3] was 27%, the “tolerability in previous phase I-III human studies” value [4] was “well tolerated” and the “effect on Lp-PLA2” value ([5]; 2 lower doses (250 mg/day and 500 mg/day)) was “not significant”. For the same compound, the “increase in Lp-PLA2” value ([5]; highest dose of DG-031 (750 mg/day), nominal p=0.0056) was 9%, the “carry-over / persistent effect after discontinuation, SAA” value ([6]; differences between visit 2 and 5, 500 and 750 mg/day vs placebo, p=0.051) was “evidence of a persistent effect” and the “reduction of serum levels of SAA” value ([6]; summary of the clinical trial) was “approximately 25%”. The “maximum reduction in LTB4 production by ionomycin-activated neutrophils ex vivo” value ([7]; 750 mg/day DG-031 vs placebo, 4-week treatment, MI patients carrying at-risk FLAP/LTA4 hydrolase haplotypes, nominal p=0.0026) was 26%, the “carry-over effect from treatment phase to placebo phase, LTB4” value [7, 10] was “No carry over effects were observed” and the “levels of LTB4 produced by ionomycin-activated neutrophils ex vivo (primary efficacy endpoint)” value ([7]; pooled set of 500 mg and 750 mg arms, nominal p=0.0042, significant after correction for multiple testing) was “reduces levels of LTB4”. The “maximum reduction in MPO production (whole blood)” value ([8]; 750 mg/day DG-031 vs placebo, nominal p=0.023) was 13%, the “carry-over effect from treatment phase to placebo phase, MPO” value [8, 10] was “No carry over effects were observed” and the “effect on other tertiary markers” value [9] was “no effects were observed”.
